# In PMC10959927, “Platinum iodido drugs show potential anti-tumor activity, affecting cancer cell metabolism and inducing ROS and senescence in gastrointestinal cancer cells” (Communications Biology, 2024):
# Several values for one entry are separate records, joined by “and”; a condition that tells them apart may be missing. Equal entries are not always repeated.
# Columns and labels:
# Assay type in all cases: cell-based, human
# [1] = system: MKN45 cells; assay: Immunofluorescence of γ-H2AX foci; conditions: Fig. 3B; for foci/cell, number of cells in class: cell count
# Protocol: Cells (7 × 10^4) were seeded on 20 mm coverslips. […] Coverslips were incubated for 1 h with the primary antibody (Cell Signaling: H2AX Ser139 (#2595) and 53BP1 (#4937)) at room temperature, followed by a 1 h incubation with the appropriate secondary antibody. DNA was stained with DAPI. Fluorescence microscopy was performed using a NIKON Eclipse 90i. The image analysis was performed using the software program Nikon NIS-Elements and Image J.
# [2] = system: AGS cells; assay: SA-β-Gal histochemical staining; conditions: Fig. S4A
# How it was run: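 AGS, MKN45 or PANC1 cells (5×10^4) were seeded in 24-well plates overnight before treatment. For flow cytometry, cells were PFA-fixed and stained with CellEvent Senescence Green probe (1:500), read at ex 488/em 530/30 nm. For histochemistry, cells were treated 3 h, then kept 24 h in fresh medium before SA-β-Gal staining.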
# [3] = system: AGS cells; assay: Western blotting (p-p53, p-JNK, p-p38, p-ERK, p-CHK1/2, Mcl1, BID, BAX); conditions: for fold change p-ERK vs Tubulin / fold change p-JNK vs Tubulin / fold change p-p38 vs Tubulin / fold change p-p53 vs Tubulin: Fig. 4A, replicate values; for fold change BAX vs Tubulin / fold change BID full length vs Tubulin / fold change MCL1 vs Tubulin: Fig. S3B
# Protocol: (§1) Total protein extracts were obtained by adding the lysis buffer: 25 mM HEPES pH 7.5, 0.3 M NaCl, 1.5 mM MgCl2, 0.2 mM EDTA, 0.5 mM DTT, 20 mM β-glicerophosphate, 0.1 mM Na3VO4, 0.1% triton X-100; in the presence of protease inhibitors. Twenty μg of protein per sample were loaded and resolved using 8%, 10% or 15% SDS-PAGE polyacrylamide gels, and then transferred onto PVDF membranes, followed by immunodetection using appropriate antibodies, purchased from Santa Cruz Technology: Mcl-1 (sc-819), Cell Signaling Technology: BIM, BID, BAX (#9942), p-p38 (1:2000, #4631), p-p53^ser15 (#9284), p-ERK1/2 (1:2000, #9106), p-CHK1^ser345 and p-CHK2^ser19 (#9931), Promega Corporation-Spain: p-JNK (#V7932), or Sigma-Aldrich: α-tubulin (1:10000, #TP026). Unless indicated, all antibodies were diluted 1:1000. Secondary antibodies conjugated with horseradish peroxidase were purchased from BioRad, and chemiluminescence detection was performed using ECL (Santa Cruz Biotechnology).
# [4] = system: PANC1 cells; assay: as above; conditions: for fold change BAX vs Tubulin / fold change MCL1 vs Tubulin: Fig. S3B; for fold change p-ERK vs Tubulin / fold change p-JNK vs Tubulin / fold change p-p38 vs Tubulin / fold change p-p53 vs Tubulin: PANC1, Fig. 4A, replicate values
# Protocol: as §1
# [5] = system: PANC1 cells; assay: ROS detection by confocal microscopy (DHE, MitoSox); conditions: PANC1, 1 h treatment; H2O2 200 µM, CDDP 10 µM, I5 20 µM, I6 20 µM
# Protocol: Tumor cells were seeded at a density of 3 × 10^5 cells in 15 µm 8-well IBIDI plates and incubated overnight. […] Subsequently, cells were stained with 10 μM of dihydroethidium (DHE, cytosolic O2^·- probe, Sigma-Aldrich) or with 5 μM of Mitosox (mitochondrial O2^·- probe, Sigma-Aldrich) for 15–30 min[79] and then visualized on a confocal microscope (Confocal LSM 710 Zeiss, Biomedical Research Institute Alberto Sols, IIBm-CSIC-UAM, Madrid, Spain). The image analysis was realized using the software program Image J.
# [6] = system: AGS cells; assay: Ratio GSH/GSSG, colorimetric kit
# How it was run: (§2)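 AGS and PANC1 cells were exposed to compounds for 3 and 24 h, with H2O2 as positive control. GSSG was measured separately after 2-vinylpyridine treatment to give the GSH/GSSG ratio.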
# [7] = system: PANC1 cells; assay: Ratio GSH/GSSG, colorimetric kit
# How it was run: as §2
compound,measurement,setting,value
"CC(C)[NH][Pt@SP1]([I])([I])[NH]C(C)C [I6, cis-[PtI2(isopropylamine)2]]","foci/cell, share of cells in class (Suma 100)",[1]; class 16-30 foci/cell,16.6667
same,"foci/cell, number of cells in class",[1]; class 16-30 foci/cell,7
same,"foci/cell, share of cells in class (Suma 100)",[1]; class 31-45 foci/cell,14.2857
same,"foci/cell, number of cells in class",[1]; class 31-45 foci/cell,6
same,"foci/cell, share of cells in class (Suma 100)",[1]; class 46-60 foci/cell,23.8095
same,"foci/cell, number of cells in class",[1]; class 46-60 foci/cell,10
same,"foci/cell, share of cells in class (Suma 100)",[1]; class <15 foci/cell,11.9048
same,"foci/cell, number of cells in class",[1]; class <15 foci/cell,5
same,"foci/cell, share of cells in class (Suma 100)",[1]; class >61 foci/cell,33.3333
same,"foci/cell, number of cells in class",[1]; class >61 foci/cell,14
same,Fold change % Senescence,[2],49.02% and 67.7% and 53.18%
same,activation of p53 (p-p53 western blot),"[3]; IC50, 1, 3, 6 and 24 h",did not activate p53
same,"phosphorylation of CHK1/2 (DDR pathway, western blot)","[3]; IC50, 1, 3, 6 or 24 h",did not activate
same,fold change p-ERK vs Tubulin,[3]; Time 1 h,2.604 fold change and 2.955 fold change and 1.91 fold change
same,fold change p-JNK vs Tubulin,[3]; Time 1 h,1.478 fold change and 1.305 fold change and 1.607 fold change
same,fold change p-p38 vs Tubulin,[3]; Time 1 h,1.462 fold change and 1.894 fold change and 2.196 fold change
same,fold change p-p53 vs Tubulin,[3]; Time 1 h,0.562 fold change and 0.6997 fold change and 1.25 fold change
same,fold change p-ERK vs Tubulin,[3]; Time 3 h,1.3326 fold change and 1.834 fold change and 1.749 fold change
same,fold change p-JNK vs Tubulin,[3]; Time 3 h,0.8249 fold change and 0.7387 fold change and 1.623 fold change
same,fold change p-p38 vs Tubulin,[3]; Time 3 h,1.1118 fold change and 2.258 fold change and 0.7258 fold change
same,fold change p-p53 vs Tubulin,[3]; Time 3 h,0.3925 fold change and 0.7056 fold change and 1.358 fold change
same,fold change p-ERK vs Tubulin,[3]; Time 6 h,1.495 fold change and 1.997 fold change and 1.556 fold change
same,fold change p-JNK vs Tubulin,[3]; Time 6 h,0.7672 fold change and 1.335 fold change and 1.232 fold change
same,fold change p-p38 vs Tubulin,[3]; Time 6 h,1.675 fold change and 3.507 fold change and 1.086 fold change
same,fold change p-p53 vs Tubulin,[3]; Time 6 h,0.5607 fold change and 0.7436 fold change and 1.621 fold change
same,fold change p-ERK vs Tubulin,[3]; Time 24 h,0.7805 fold change and 2.6246 fold change and 1.218 fold change
same,fold change p-JNK vs Tubulin,[3]; Time 24 h,0.8639 fold change and 0.8519 fold change and 1.138 fold change
same,fold change p-p38 vs Tubulin,[3]; Time 24 h,2.641 fold change and 0.9281 fold change and 1.316 fold change
same,fold change p-p53 vs Tubulin,[3]; Time 24 h,0.6954 fold change and 1.1071 fold change and 1.226 fold change
same,fold change BAX vs Tubulin,[3]; time 1 h,1.29 fold change and 0.734 fold change and 1.017 fold change
same,fold change BID full length vs Tubulin,[3]; time 1 h,0.722 fold change and 1.325 fold change and 0.67 fold change
same,fold change MCL1 vs Tubulin,[3]; time 1 h,0.493 fold change and 0.586 fold change and 0.597 fold change
same,fold change BAX vs Tubulin,[3]; time 3 h,0.759 fold change and 1.497 fold change and 1.286 fold change
same,fold change BID full length vs Tubulin,[3]; time 3 h,1.126 fold change and 1.525 fold change and 0.803 fold change
same,fold change MCL1 vs Tubulin,[3]; time 3 h,0.592 fold change and 1.105 fold change and 0.81 fold change
same,fold change BAX vs Tubulin,[3]; time 6 h,1.353 fold change and 1.942 fold change and 1.061 fold change
same,fold change MCL1 vs Tubulin,[3]; time 6 h,0.911 fold change and 1.666 fold change and 1.549 fold change
same,fold change BID full length vs Tubulin,[3]; time 24 h,1.406 fold change and 1.917 fold change and 1.97 fold change
same,activation of p53 (p-p53 western blot),"[4]; PANC1, IC50, 1, 3, 6 and 24 h",did not activate p53
same,"phosphorylation of CHK1/2 (DDR pathway, western blot)","[4]; PANC1, IC50, 1, 3, 6 or 24 h",did not activate
same,fold change BAX vs Tubulin,"[4]; PANC1, time 1 h",1.132 fold change and 1.289 fold change and 1.219 fold change
same,fold change MCL1 vs Tubulin,"[4]; PANC1, time 1 h",0.6156 fold change and 0.9493 fold change and 1.031 fold change
same,fold change BAX vs Tubulin,"[4]; PANC1, time 3 h",1.6811 fold change and 1.471 fold change and 1.573 fold change
same,fold change BAX vs Tubulin,"[4]; PANC1, time 6 h",1.615 fold change and 2.78 fold change and 2.056 fold change
same,fold change MCL1 vs Tubulin,"[4]; PANC1, time 6 h",1.135 fold change and 2.241 fold change and 1.84 fold change
same,fold change BAX vs Tubulin,"[4]; PANC1, time 24 h",2.639 fold change and 1.942 fold change and 1.489 fold change
same,fold change p-ERK vs Tubulin,[4]; Time 1 h,1.209 fold change and 3.621 fold change and 2.27 fold change
same,fold change p-JNK vs Tubulin,[4]; Time 1 h,1.809 fold change and 1.288 fold change and 3.68 fold change
same,fold change p-p38 vs Tubulin,[4]; Time 1 h,2.603 fold change and 1.024 fold change and 1.89 fold change
same,fold change p-p53 vs Tubulin,[4]; Time 1 h,0.76 fold change and 1.24 fold change and 0.65 fold change
same,fold change p-ERK vs Tubulin,[4]; Time 3 h,0.5754 fold change and 1.698 fold change and 1.17 fold change
same,fold change p-JNK vs Tubulin,[4]; Time 3 h,0.5257 fold change and 0.2509 fold change and 3.356 fold change
same,fold change p-p38 vs Tubulin,[4]; Time 3 h,1.159 fold change and 1.033 fold change and 1.07 fold change
same,fold change p-p53 vs Tubulin,[4]; Time 3 h,0.78 fold change and 1.36 fold change and 1.16 fold change
same,fold change p-ERK vs Tubulin,[4]; Time 6 h,0.6008 fold change and 2.546 fold change and 1.66 fold change
same,fold change p-JNK vs Tubulin,[4]; Time 6 h,0.6321 fold change and 0.3554 fold change and 4.716 fold change
same,fold change p-p38 vs Tubulin,[4]; Time 6 h,0.976 fold change and 1.156 fold change and 1.0897 fold change
same,fold change p-p53 vs Tubulin,[4]; Time 6 h,1.01 fold change and 0.69 fold change and 0.99 fold change
same,fold change p-ERK vs Tubulin,[4]; Time 24 h,0.4409 fold change and 1.892 fold change and 1.09 fold change
same,fold change p-JNK vs Tubulin,[4]; Time 24 h,0.5968 fold change and 0.8335 fold change and 2.596 fold change
same,fold change p-p38 vs Tubulin,[4]; Time 24 h,1.91 fold change and 1.31 fold change and 1.357 fold change
same,fold change p-p53 vs Tubulin,[4]; Time 24 h,2.28 fold change and 1.99 fold change and 1.04 fold change
same,"DHE fluorescence intensity (per cell), cytosolic O2•−",[5],98.4842 and 86.3637 and 85.797 and 82.1548 and 76.0203 and 75.3191
same,"Mitosox fluorescence intensity (per cell), mitochondrial O2•−",[5],91.9093 and 80.7891 and 70.3911 and 69.2294 and 66.6051 and 57.9644
same,GSH/GSSG,"[6]; AGS, 3, relative to Control = 1",0.7708 and 0.7765 and 0.8015
same,GSH/GSSG,"[6]; AGS, 24, relative to Control = 1",0.964 and 0.9646 and 1.003
same,GSH/GSSG,"[7]; PANC1, 3, relative to Control = 1",0.8833 and 0.8858 and 1.064
same,GSH/GSSG,"[7]; PANC1, 24, relative to Control = 1",0.52 and 0.6511 and 0.6572
